In patent US20190307754A1, “PDE9 INHIBITORS FOR TREATMENT OF PERIPHERAL DISEASES” (IMARA, INC., priority 2016, published 2019):
Entries after “also recorded” stand apart in the source; their conditions may differ. Marks after values point to notes of the source that are not given here.

Experiments:
PDE9 = PDE9 (Homo sapiens, UniProt O76083); experiment: PDE9 inhibition assay; assay type: biochemical
Description: Reactions are initiated by addition of the cyclic nucleotide substrate, and reactions are allowed to proceed for one hr at room temperature before being terminated through mixing with 15 uL 8 mg/mL yttrium silicate SPA beads (Amersham).
Following a 1 hour incubation the reactions were terminated by addition of 15 uL 8 mg/mL yttrium silicate SPA beads (Amersham). […] IC50 values were calculated by nonlinear regression using XLfit (IDBS).

[1] = system: K562 erythroleukemic cells; experiment: HbF in cultured K562 cells; assay type: cell-based; conditions: 3 days
Description: K562 cells were cultured at 37° C. in IMDM® to which the required concentrations of test items or DMSO (negative control) had been added. Plated cells were maintained at 37° C. for 3 days at the end of which the presence of HbF within cells was detected by flow cytometry.

[2] = system: Berkeley sickle cell transgenic mice; experiment: HbF positive and sickled red blood cells in Berkeley sickle cell transgenic mice; assay type: in vivo; conditions: 30 mg/kg/day Compound P3.1 or 100 mg/kg/day HU, gavage, 30 days
Description: This study assessed the effects of chronic dosing (30 day) of Compound P3.1 and HU on HbF and cell sickling in a mouse model of sickle cell disease. Berkeley sickle cell transgenic mice (Hbatm1PazHbbtm1Tow Tg(HBA-HBBs)41Paz/J) were divided into groups of 7 to 8 animals and were dosed once daily, by gavage, for 30 days with either vehicle (PEG:water), 30 mg/kg/day of Compound P3.1, or 100 mg/kg/day of HU. This mouse genotype mimics the genetic, hematologic and histopathologic features that are found in humans afflicted with sickle cell anemia, including irreversibly sickled RBCs, anemia and multi-organ pathology. Blood was collected from treated animals on Day 30 for limited routine hematology as well as derivation of the percent of sickled and HbF positive RBCs and total bilirubin. At termination, the spleen was removed and weighed.

[3] = Plasma, brain and eye exposure in C57Bl/6J mice; assay type: in vivo; conditions: for concentration at 30 min: male, C57Bl/6J, mouse, plasma, oral, gavage, Day 5, 30 minutes after dosing
Description: The exposure of both compounds was also evaluated in the plasma, brain, and eye. […] During the treatment period all animals were assessed for contextual fear conditioning and a subset of 7 animals per group was evaluated for locomotor activity. On Day 5, plasma, brain, and eye tissue were collected 30 minutes after dosing from 3 animals per treated group to measure concentrations of test item.

[4] = molecular target: hERG-mediated potassium currents (Homo sapiens, UniProt Q12809); experiment: in vitro hERG assay; assay type: cell-based; conditions: concentrations up through 10^−5 M
From the text: (§1) The safety pharmacology assessment of Compound P3.1 included an in vitro hERG assay, neurofunctional and respiratory studies in rats, and a cardiovascular study in beagle dogs.

Han Wistar Rats = experiment: Neurofunctional study in Han Wistar rats; assay type: in vivo, rat
Description: as §1
Single oral doses of 250, 500, and 1000 mg/kg Compound P3.1 in Han Wistar Rats had no effect on clinical observations, home cage observations, handheld observations, or body temperatures.

conscious dogs = experiment: Cardiovascular study in beagle dogs; assay type: in vivo, dog
Description: as §1
In a cardiovascular study conducted in 4 dogs, treatments were performed by oral gavage according to a crossover design after allowing a minimum washout period of 48 hours. In conscious dogs, Compound P3.1 at doses of 10 and 25 mg/kg had no effect on arterial blood pressure, heart rate, body temperature, cardiac conduction times, ventricular repolarization duration, QT variability, or ST segment.

[5] = Pharmacokinetics of single oral and IV dose in CD1 mice; assay type: in vivo
Description: Blood samples were taken at 2 minutes (IV only), then 8, 15, 30 minutes, and 1, 2, 4, 8, and 24 hours after dosing and analyzed for key PK parameters. In the rats, brain samples were taken at 24 hours and analyzed for Compound P3.1. To evaluate the penetration of Compound P3.1 across the blood-brain barrier (BBB), 10 additional rats received IV Compound P3.1 3 mg/kg and plasma and brain concentrations of Compound P3.1 were determined from 2 animals at 15 minutes, 30 minutes and 1, 2, and 4 hours after dosing.

[6] = Plasma protein binding, mouse; assay type: in vitro ADME; conditions: read-out: mean plasma fraction bound (converted)
[7] = Plasma protein binding, dog; assay type: in vitro ADME; conditions: read-out: mean plasma fraction bound (converted)
[8] = Stability study of drug substance (ambient and 40-45 °C); assay type: physicochemical; conditions: ambient temperature and 40° C.−45° C., 3-month period
Description: A stability study has been completed on Compound P3.1. Samples of Compound P3.1 were aliquoted into double-walled polyethylene pouches, which were tied off and then heat-sealed in an aluminum pouch. Samples were stored at ambient temperature and at 40° C.−45° C. (no humidity control) with testing performed over a 3-month period.

[9] = system: TNF-α activated endothelium; experiment: Micro-channel assay of platelet, PMN and RBC binding (FIG. 10); assay type: cell-based, human; conditions: bound cells at 30 min
Description: In another assay, using the same method, the reduction of PMN and RBC bindings to TNF-α activated endothelium in a micro channel well was confirmed. Platelet, PMN, and RBC in blood samples from 5 healthy normal volunteers (donors) were labelled with fluorescent dyes. The blood samples were incubated with Compound P3.1 for 2 hours or 3 hours, or HU for 3 hours, prior to running them on micro channels that were previously coated with endothelial cells activated with TNF-α. The % of bound cells was quantified at 30 min. Results are shown in FIG. 10A, FIG. 10B, and FIG. 10C.

[10] = mouse, blood, CD1 mice, 3 mg/kg IV
[11] = mouse, blood, CD1 mice, 10 mg/kg oral

hERG-mediated potassium currents, sequence (Q12809 whole entry): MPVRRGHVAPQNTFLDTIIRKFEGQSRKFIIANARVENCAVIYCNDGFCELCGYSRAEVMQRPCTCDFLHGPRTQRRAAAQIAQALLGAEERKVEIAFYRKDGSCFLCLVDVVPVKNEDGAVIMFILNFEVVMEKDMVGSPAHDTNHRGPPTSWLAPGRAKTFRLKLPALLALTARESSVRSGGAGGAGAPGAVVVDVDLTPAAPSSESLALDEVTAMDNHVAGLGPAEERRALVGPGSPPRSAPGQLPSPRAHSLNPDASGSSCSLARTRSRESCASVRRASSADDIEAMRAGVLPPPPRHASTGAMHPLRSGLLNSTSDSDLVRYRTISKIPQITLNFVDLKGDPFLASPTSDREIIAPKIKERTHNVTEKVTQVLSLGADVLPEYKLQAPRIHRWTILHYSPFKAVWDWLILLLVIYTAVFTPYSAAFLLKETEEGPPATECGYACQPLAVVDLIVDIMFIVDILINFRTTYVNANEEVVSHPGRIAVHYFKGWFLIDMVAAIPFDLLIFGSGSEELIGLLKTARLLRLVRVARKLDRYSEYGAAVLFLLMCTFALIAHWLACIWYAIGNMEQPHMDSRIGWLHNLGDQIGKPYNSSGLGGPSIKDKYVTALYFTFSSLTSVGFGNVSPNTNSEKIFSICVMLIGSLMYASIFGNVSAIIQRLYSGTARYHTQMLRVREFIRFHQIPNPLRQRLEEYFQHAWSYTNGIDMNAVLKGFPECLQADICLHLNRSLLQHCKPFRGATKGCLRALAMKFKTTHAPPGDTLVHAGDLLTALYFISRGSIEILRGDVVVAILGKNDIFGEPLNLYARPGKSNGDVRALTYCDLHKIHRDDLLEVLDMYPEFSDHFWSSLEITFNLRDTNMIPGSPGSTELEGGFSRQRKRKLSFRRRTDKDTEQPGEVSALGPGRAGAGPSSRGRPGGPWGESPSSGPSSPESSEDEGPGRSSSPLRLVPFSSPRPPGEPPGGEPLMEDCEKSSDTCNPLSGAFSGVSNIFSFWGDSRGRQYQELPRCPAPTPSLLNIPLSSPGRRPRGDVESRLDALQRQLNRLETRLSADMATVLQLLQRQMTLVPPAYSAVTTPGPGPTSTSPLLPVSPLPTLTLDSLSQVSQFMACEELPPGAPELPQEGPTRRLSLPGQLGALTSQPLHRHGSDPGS
PDE9, sequence (O76083 whole entry): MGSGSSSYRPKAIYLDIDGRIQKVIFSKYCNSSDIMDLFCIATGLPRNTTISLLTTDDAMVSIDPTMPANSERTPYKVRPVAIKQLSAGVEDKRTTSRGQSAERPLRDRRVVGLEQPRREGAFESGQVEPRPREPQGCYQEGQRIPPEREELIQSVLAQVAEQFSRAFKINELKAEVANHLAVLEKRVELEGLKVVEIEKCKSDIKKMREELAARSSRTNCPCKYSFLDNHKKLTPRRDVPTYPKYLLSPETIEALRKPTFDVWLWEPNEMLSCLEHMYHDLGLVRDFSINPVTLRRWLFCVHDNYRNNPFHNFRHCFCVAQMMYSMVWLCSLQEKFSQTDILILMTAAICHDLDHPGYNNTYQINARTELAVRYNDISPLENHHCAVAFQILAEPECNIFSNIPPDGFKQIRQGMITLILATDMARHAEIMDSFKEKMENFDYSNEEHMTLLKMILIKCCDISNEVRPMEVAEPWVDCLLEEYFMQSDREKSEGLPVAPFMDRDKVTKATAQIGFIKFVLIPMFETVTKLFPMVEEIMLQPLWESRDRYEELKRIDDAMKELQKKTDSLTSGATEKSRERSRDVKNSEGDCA

C[C@@H]1CN(Cc2ncccn2)C[C@H]1c1cn2c(C3CCOCC3)ncc2c(=O)[nH]1 (single isomer, unassigned) [Compound P3.1]
IC50 (PDE9): 49 nM | HbF positive cells ([1]; 1 μM): 68.7% | HbF positive cells ([1]; 3 μM): 75.6% | HbF positive cells ([1]; 10 μM): 85.6% | RBC count, hemoglobin concentration or hematocrit [2]: not associated with any apparent alterations | neutrophil levels [2]: reduced neutrophil levels | spleen weight [2]: statistically significant decreases | total bilirubin [2]: statistically significant decreases | total leucocyte count [2]: statistically significant decreases | percentage of HbF positive RBCs ([2]; vs controls): increases in the percentage of HbF positive RBCs | percentage of sickled RBCs ([2]; vs controls): statistically significant decreases in the percentage of sickled RBCs | eye tissue level relative to AF27873 ([3]; 10 and 30 mg/kg/day): 3 fold lower | concentration at 30 min ([3]; 10 mg/kg/day): 3.84 µM | concentration at 30 min ([3]; 30 mg/kg/day): 9.91 µM | plasma to brain ratio ([3]; repeated administration): approximately 14 | inhibitory effect on hERG-mediated potassium currents [4]: did not have an inhibitory effect; also recorded: no inhibitory effect | adverse finding (Han Wistar Rats; >500 mg/kg, 0.5 and 24 hours post dosing): increased incidence of no visible-approach response | non-adverse findings at 250 mg/kg (Han Wistar Rats; single oral 250 mg/kg): transient decrease in sensory response (approach response) | non-adverse findings at 500 and 1000 mg/kg (Han Wistar Rats; single oral 500 and 1000 mg/kg): decreases in body weight/weight gain, motor activity (number of rears), and sensory response (tail pinch response) | clinical, home cage, handheld observations, body temperatures (Han Wistar Rats; single oral doses of 250, 500, and 1000 mg/kg): no effect | cardiovascular effects (conscious dogs; oral gavage 75 mg/kg): induced tachycardia as well as a slight, progressive and delayed decrease in blood pressure and shortened conduction times | arterial blood pressure, heart rate, body temperature, conduction times, repolarization, QT variability, ST segment (conscious dogs; oral gavage 10 and 25 mg/kg): no effect | bioavailability ([5]; CD1, mouse, plasma, po, 10 mg/kg, read-out: oral bioavailability Flast): 44.6% | Cl_obs ([5]; CD1 mice, 3 mg/kg IV): 30.7 mL/min/kg | Flast ([5]; CD1 mice, 10 mg/kg oral): 63.4% | Vss obs ([5]; CD1 mice, 10 mg/kg oral): 63.4** L/kg | continuously exposed out to ([5]; mice, 10 mg/kg oral): 4 h | AUC(0-t) [5, 10]: 1630 ng·h/mL | C0 [5, 10]: 4430 ng/mL | MRT [5, 10]: 26.4 min | half-life [5, 10]: 37.8 min | Vd ([5]; mouse, blood, CD1 mice, 3 mg/kg IV, read-out: Vss obs): 0.89 L/kg | AUC(0-t) [5, 11]: 3440 ng·h/mL | C0 [5, 11]: 2750 ng/mL | Tmax [5, 11]: 30 min | half-life [5, 11]: 48.6 min | fraction unbound [6]: 0.767 | fraction unbound [7]: 0.771 | stability: appearance and purity of drug substance [8]: no changes to appearance or purity | platelet binding ([9]; Compound P3.1 2 or 3 hours, HU 3 hours): did not impact platelet binding | PMN adhesion to endothelial cells ([9]; blood incubated 2 or 3 hours): reduced | RBC adhesion to endothelial cells ([9]; blood incubated 2 or 3 hours): reduced
